Converted amounts (≈) assume the structure as drawn.
Assays:
[1] = tested on: primary fibroblast cells from an NPC patient (NPC1 mutant); assay: Intracellular cholesterol distribution by Filipin III staining; type: cell-based, human; settings: 1 mM, 72 h, NPC1 mutant primary fibroblasts
Experimental: We determined the effects of the CD derivatives on intracellular cholesterol accumulation in primary fibroblast cells derived from an NPC patient using Filipin III, a fluorescent compound that specifically binds to unesterified cholesterol. After treatment with the CD derivatives (1 mM) for 72 h, the cells were examined for the fluorescent intensity of Filipin III using a fluorescence microscope. […] Studies are underway to define the molecular mechanisms by which HPβCD and HPγCD alleviate the cholesterol-trafficking defect. Cells were incubated in medium containing CD derivatives at 1 mM for 72 h. Cells were washed three times with PBS and fixed with 3.7% paraformaldehyde for 30 min at room temperature. After washing with PBS, cells were stained with PBS containing Filipin III (12.5 μg/mL) for 30–45 min at room temperature in the dark. After washing with PBS and applying a mounting medium, cells were analyzed using a Nikon TE2000 widefield microscope (Nikon, Melville, NY, USA).

[2] = tested on: isolated human erythrocytes; assay: In vitro hemolysis test using isolated human erythrocytes; type: cell-based
Experimental: Venous blood was taken from healthy volunteers and placed in plastic tubes containing sodium–citrate anti-coagulant. The cell fraction including erythrocytes was separated from the plasma components by centrifugation (2500× g, 10 min, 20 °C), washed three times with phosphate buffered saline (PBS) solution, and re-suspended in the same solution. The erythrocyte count was adjusted to 10^9 per mL under the control of a Laborscale cell analyzer (Medicor, Hungary). The test was performed in standard Eppendorf-type plastic tubes, where the incubation mixture consisted of 1.3 mL of reagent solution containing increasing concentrations of CDs dissolved in PBS, 0.05 mL of erythrocyte suspension containing 5 × 10^7 red blood cells, and 0.05 mL of 3% Na2CO3. After 10 min incubation at 37 °C, samples were mixed and centrifuged at 5000x g. The absorbance of the released hemoglobin in the supernatant was determined at 540 nm spectrophotometrically. As a reference, total (100%) hemolysis was obtained by replacing PBS with distilled water. CD-induced hemolysis was related to this reference value and expressed as percent hemolysis. All of the experiments included at least 10 different concentrations of the test materials in triplicate runs to allow the plotting of dose-effect curves from multi-point determinations, and to calculate EC50 values. In order to investigate the protective effect of plasma components, aliquots of PBS were replaced by 50 µL, 100 µL, and 200 µL of blood plasma in the incubation mixture. Plasma protein concentration was determined by the biuret method.

HEK293T cells = assay: MTS cell viability assay (CellTiter 96 AQueous One) in HEK293T cells; type: cell-based, human; settings: 10 mM, 24 h
Experimental: (§1) The CD/lipid inclusion complexes were then tested for their ability to reduce the metabolic activity (or cell viability) in HEK293T cells and HeLa cells (Figure 4) using the CellTiter 96 AQueous One Solution Cell Proliferation Assay Kit (Promega). Cells were treated with 10 mM of the free RAMEB, cholesterol-loaded RAMEB, linoleic acid-loaded RAMEB, or β-sitosterol-loaded RAMEB. At 24 h after treatment, a cell viability assay was conducted, and the absorbance at 490 nm was measured to determine the levels of the reaction products that were generated in metabolically active cells. Triton X-100 (TX) was included as a positive control for cytotoxicity. […]
(§2) The effects of CD treatment on cell viability and cytotoxicity were determined using the CellTiter 96 AQueous One Solution Cell Proliferation Assay Kit (Promega) and LDH Cytotoxicity Assay Kit (Thermo Fisher Scientific), respectively. […] The absorbance of the plates was recorded at 490 nm with an xMark microplate absorbance spectrophotometer (Bio-Rad, Hercules, CA, USA). […] Extracellular LDH in the media can be quantified by a coupled enzymatic reaction in which LDH catalyzes the conversion of lactate to pyruvate via nicotinamide adenine dinucleotide (NAD^+) reduction to NADH. Diaphorase then uses NADH to reduce a tetrazolium salt (INT) to a red formazan product that can be measured at 490 nm. […]

HeLa cells = assay: MTS cell viability assay (CellTiter 96 AQueous One) in HeLa cells; type: cell-based, human; settings: 10 mM, 24 h
Experimental: as §1, §2

[3] = tested on: whole blood (erythrocytes); assay: In vitro hemolysis test in whole blood samples; type: cell-based, human; settings: RBC count 1 × 10^9
Experimental: For these experiments, healthy volunteers with identical main blood groups [A, Rhesus blood factor D (Rh) positive] but differing in their plasma lipid contents were selected. Plasma and cellular blood components were separated from the freshly taken sodium-citrated blood by centrifugation (2500× g, 10 min, 4 °C). The sedimented composite cellular fraction (red and white blood cells, and platelets) was washed with PBS, then re-suspended either in their own original plasma or in the foreign plasma with the identical blood group, resulting in erythrocyte/plasma combinations of normal cholesterol/lipid levels or higher cholesterol/lipid levels. The erythrocyte count was adjusted to 4 × 10^9 per mL in the blood. In this case, hemolysis test mixtures contained 0.04 mL of test solution with increasing concentrations of methyl-β-CD, 0.25 mL of blood, and 0.01 mL of 3% Na2CO3. Incubation and subsequent centrifugation conditions were identical to the above. Aliquots of the supernatant were diluted using PBS (containing 3% Na2CO3), and their hemoglobin content was determined. Again, dose-effect curves were constructed from multi-point determinations of triplicate runs. The levels of cholesterol, high-density lipoprotein (HDL), and triglyceride in plasma were determined by the use of standard laboratory procedures.

[4] = isolated human erythrocytes in PBS, no plasma
[5] = isolated human erythrocytes in PBS, plasma 50 μL
[6] = isolated human erythrocytes in PBS, plasma 100 μL
[7] = isolated human erythrocytes in PBS, plasma 200 μL

Compound | Effect on intracellular cholesterol accumulation (Filipin III fluorescence) [1] | Hemolytic EC50 [2, 4] [µg/mL] | Hemolytic EC50 [2, 5] [µg/mL] | Hemolytic EC50 [2, 6] [µg/mL] | Hemolytic EC50 [2, 7] [µg/mL] | other results
CC(O)COC[C@H]1O[C@@H]2O[C@H]3[C@H](O)[C@@H](O)[C@@H](O[C@H]4[C@H](O)[C@@H](O)[C@@H](O[C@H]5[C@H](O)[C@@H](O)[C@@H](O[C@H]6[C@H](O)[C@@H](O)[C@@H](O[C@H]7[C@H](O)[C@@H](O)[C@@H](O[C@H]8[C@H](O)[C@@H](O)[C@@H](O[C@H]1[C@H](O)[C@H]2O)O[C@@H]8COCC(C)O)O[C@@H]7COCC(C)O)O[C@@H]6COCC(C)O)O[C@@H]5COCC(C)O)O[C@@H]4COCC(C)O)O[C@@H]3COCC(C)O (stereo partly drawn) [HPβCD, Hydroxypropyl-β-cyclodextrin] | reduction in cholesterol accumulation |  |  |  |  | 
Randomly methylated β-cyclodextrin [RAMEB] |  | 2300 ± 300 | 5200 ± 300 | 7000 ± 400 | 9700 ± 500 | Effect on cell viability (metabolic activity) (HEK293T cells): significant reduction in metabolic activity; Effect on cell viability (metabolic activity) (HeLa cells): significant reduction in metabolic activity
COC[C@H]1O[C@@H]2O[C@H]3[C@H](O)[C@@H](OC)[C@@H](O[C@H]4[C@H](O)[C@@H](OC)[C@@H](O[C@H]5[C@H](O)[C@@H](OC)[C@@H](O[C@H]6[C@H](O)[C@@H](OC)[C@@H](O[C@H]7[C@H](O)[C@@H](OC)[C@@H](O[C@H]8[C@H](O)[C@@H](OC)[C@@H](O[C@H]1[C@H](O)[C@H]2OC)O[C@@H]8COC)O[C@@H]7COC)O[C@@H]6COC)O[C@@H]5COC)O[C@@H]4COC)O[C@@H]3COC [DIMEB-50, Heptakis (2,6-di-O-methyl)-β-cyclodextrin] |  | 1200 ± 200 | 8500 ± 200 | 9400 ± 400 | 11900 ± 300 | EC50DIMEB (hemolytic potency) ([2]; 5 mg/mL BSA (Figure 2)): 1380 µg/mL (≈ 1040 µM); EC50DIMEB (hemolytic potency) ([2]; 10 mg/mL bovine serum albumin (BSA) (Figure 2)): 1530 µg/mL (≈ 1150 µM); EC50DIMEB (hemolytic potency) ([2]; 100-µL plasma resulting in 5 mg/mL protein concentration in the mixture (Figure 2)): 9380 µg/mL; EC50DIMEB (hemolytic potency) ([2]; 200-µL plasma resulting in 10 mg/mL protein concentration in the mixture (Figure 2)): 11960 µg/mL; Hemolytic EC50 ([2]; RBCs-washed, 200 μL plasma added, plasma CHO 0.76 mM, HDL 0.25 mM, TG 0.13 mM, RBC count 5 × 10^7): 12600 ± 200 µg/mL; Hemolytic EC50 ([2]; RBCs-washed, no plasma added, RBC count 5 × 10^7): 1320 ± 100 µg/mL; Hemolytic EC50 ([3]; plasma CHO 2.22 mM, HDL 1.13 mM, TG 0.48 mM): 18000 ± 200 µg/mL; Hemolytic EC50 ([3]; plasma CHO 4.38 mM, HDL 0.58 mM, TG 1.08 mM): 22400 ± 400 µg/mL
COC[C@H]1O[C@@H]2O[C@H]3[C@H](OC)[C@@H](OC)[C@@H](O[C@H]4[C@H](OC)[C@@H](OC)[C@@H](O[C@H]5[C@H](OC)[C@@H](OC)[C@@H](O[C@H]6[C@H](OC)[C@@H](OC)[C@@H](O[C@H]7[C@H](OC)[C@@H](OC)[C@@H](O[C@H]8[C@H](OC)[C@@H](OC)[C@@H](O[C@H]1[C@H](OC)[C@H]2OC)O[C@@H]8COC)O[C@@H]7COC)O[C@@H]6COC)O[C@@H]5COC)O[C@@H]4COC)O[C@@H]3COC [TRIMEB, Heptakis (2,3,6-tri-O-methyl)-β-cyclodextrin] |  | 7300 ± 200 | 11300 ± 300 | 14700 ± 400 | 19000 ± 200 | 
COC[C@H]1O[C@@H]2O[C@H]3[C@H](O)[C@@H](OC)[C@@H](O[C@H]4[C@H](O)[C@@H](OC)[C@@H](O[C@H]5[C@H](O)[C@@H](OC)[C@@H](O[C@H]6[C@H](O)[C@@H](OC)[C@@H](O[C@H]7[C@H](O)[C@@H](OC)[C@@H](O[C@H]8[C@H](O)[C@@H](OC)[C@@H](O[C@H]1[C@H](O)[C@H]2OC)O[C@@H]8COC)O[C@@H]7COC)O[C@@H]6COC)O[C@@H]5COC)O[C@@H]4COC)O[C@@H]3COC [DIMEB-95, Heptakis (2,6-di-O-methyl)-β-cyclodextrin] |  | 1200 ± 300 | 4700 ± 400 | 6500 ± 600 | 8800 ± 500 | 
Hydroxypropyl-γ-cyclodextrin [HPγCD] | reduction in cholesterol accumulation |  |  |  |  | 
